Measurements from patent US20260191807A1, “COMPOSITIONS AND METHODS FOR TREATMENT OF PRADER-WILLI SYNDROME” (ERX Pharmaceuticals Inc., priority 2022, published 2026).
Read-outs that look alike come from different tables or passages of the source.

How the values were obtained:
C57BL/6 DIO mice [1] = experiment: Nestlet shredding test in C57BL/6 DIO mice; format: in vivo; settings: Belaronib 0.3 mg/kg SC, Celastrol 0.2 mg/kg IP daily, mean
Description: (§1) C57BL/6 mice were treated with test compound (Celastrol) or controls as shown in the table below from Day 1 to Day 15. […] One mouse was excluded from the study because it appeared resistant to nestlet shredding prior to treatment.
(§2) Male C57BL/6 DIO mice were obtained from Jackson Labs (Bar Harbor, ME). The mice arrived at ages 17 weeks and mice were housed 3 per cage on arrival. Prior to dosing in the study, the mice were singly housed.
(§3) All treatment volumes were 10 mL/kg. Utilizing the art-recognized nestlet shredding mouse model, […]. Celastrol and the vehicle control were administered intraperitoneally using a 30G needle. Beloranib was administered subcutaneously using a 30G needle. All treatments were administered daily in the afternoon at 17:00 h, 1 hour before dark cycle from Day 1 to end of dosing.
(§4) Celastrol was dissolved in a pharmaceutically-acceptable excipient, e.g., 50% Solutol/50% DMAC, and this stock solution aliquoted and stored at −80° C. until treatment day. On the day of treatment, an aliquot of the stock solution was thawed and diluted […] with saline to obtain the desired dosing solution strength in 5% Solutol/5% dimethylacetamide/90% saline. The vehicle control was 5% Solutol/5% dimethylacetamide/90% saline. Beloranib was dissolved in 100% DMSO, and this stock solution was aliquoted and stored at −80° C. until treatment day. On the day of treatment, an aliquot of the stock solution was thawed and diluted 1:10 with deionized (DI) water to obtain the desired dosing solution strength in 10% DMSO.
The nestlet shredding test is an art-recognized animal model for human repetitive, anxiety, and/or compulsive behaviors. In the nestlet shredding test, a nestlet comprised of pulped fiber, e.g., cotton fiber, is preweighed and placed on top of cage bedding and the amount of the nestlet remaining intact after a test session of pre-determined time is evaluated.
Nestlet shredding was determined on day 1, day 6, day 11 and day 15 by placing a fresh nestlet prior to the dark cycle and measuring the weight of the remaining nestlet at 12 and 24 hours on an Ohaus model CS 200 balance. Percent shredding was calculated based on the initial nestlet weight.

C57BL/6 DIO mice [2] = experiment: Daily food intake of C57BL/6 DIO mice; format: in vivo; settings: for Food intake (food weights in g/day): Belaronib 0.3 mg/kg SC, Celastrol 0.2 mg/kg IP daily, mean
Description: as §1, §2, §3, §4
Daily food intake was calculated based on remaining food weight compared to food weight on the previous day using an Ohaus model CS 200 balance.

C57BL/6 DIO mice [3] = experiment: Body weights of C57BL/6 DIO mice during daily treatment; format: in vivo; settings: Celastrol 0.2 mg/kg IP daily; for Body weights (expressed as a percentage of day-1 weight) / Body weights (in grams): Belaronib 0.3 mg/kg SC, mean
Participants with PWS = settings: cited from earlier work; for weight change, mean difference: p<0.0001

Question: With `CO[C@@H]1[C@H](OC(=O)/C=C/c2ccc(OCCN(C)C)cc2)CC[C@]2(CO2)[C@H]1[C@@]1(C)O[C@@H]1CC=C(C)C` [Belaronib, Beloranib, reference compound] as the molecule, how does the “Nestlet Shredding (percent of nestlet shredded)” value (C57BL/6 DIO mice [1]; Day 1, 12 hour) read?
Answer: The value was 95.5%.

Question: What about the “Nestlet Shredding (percent of nestlet shredded)” value (C57BL/6 DIO mice [1]; Day 6, 12 hour) of the same molecule?
Answer: The value was 11.9%.

Question: What about the “Nestlet Shredding (percent of nestlet shredded)” value (C57BL/6 DIO mice [1]; Day 6, 24 hour) of the same molecule?
Answer: Its value is 15.7%.

Question: And the “Nestlet Shredding (percent of nestlet shredded)” value (C57BL/6 DIO mice [1]; Day 11, 12 hour)?
Answer: The value was 3.8%.

Question: What about the “Nestlet Shredding (percent of nestlet shredded)” value (C57BL/6 DIO mice [1]; Day 11, 24 hour) of the same molecule?
Answer: The value was 5.2%.

Question: What about the “Nestlet Shredding (percent of nestlet shredded)” value (C57BL/6 DIO mice [1]; Day 15, 12 hour) of the same molecule?
Answer: Its value is 27.6%.

Question: And the “Nestlet Shredding (percent of nestlet shredded)” value (C57BL/6 DIO mice [1]; Day 15, 24 hour)?
Answer: The value was 32.9%.

Question: What about the “cumulative food intake, average total for the study” value (C57BL/6 DIO mice [2]; 15-day study, Beloranib 0.3 mg/kg SC, celastrol 0.2 mg/kg IP daily, vehicle 32.6 g) of the same molecule?
Answer: The value was 28.1 g/mouse.

Question: What about the “effect on food intake (in words)” value (C57BL/6 DIO mice [2]; Celastrol compared with positive control Beloranib) of the same molecule?
Answer: Its value is “rebounded”.

Question: And the “Food intake (food weights in g/day)” value (C57BL/6 DIO mice [2]; Day 1)?
Answer: The value was 3.1 g/day.

Question: And the “Food intake (food weights in g/day)” value (C57BL/6 DIO mice [2]; Day 2)?
Answer: The value was 1.5 g/day.

Question: What about the “Food intake (food weights in g/day)” value (C57BL/6 DIO mice [2]; Day 3) of the same molecule?
Answer: The value was 2.3 g/day.

Question: What about the “Food intake (food weights in g/day)” value (C57BL/6 DIO mice [2]; Day 4) of the same molecule?
Answer: The value was 1.9 g/day.

Question: And the “Food intake (food weights in g/day)” value (C57BL/6 DIO mice [2]; Day 5)?
Answer: Its value is 1.4 g/day.

Question: And the “Food intake (food weights in g/day)” value (C57BL/6 DIO mice [2]; Day 6)?
Answer: The value was 1.2 g/day.

Question: What about the “Food intake (food weights in g/day)” value (C57BL/6 DIO mice [2]; Day 7) of the same molecule?
Answer: The value was 1.1 g/day.

Question: And the “Food intake (food weights in g/day)” value (C57BL/6 DIO mice [2]; Day 8)?
Answer: Its value is 1.5 g/day.

Question: And the “Food intake (food weights in g/day)” value (C57BL/6 DIO mice [2]; Day 9)?
Answer: Its value is 1.1 g/day.

Question: What about the “Food intake (food weights in g/day)” value (C57BL/6 DIO mice [2]; Day 10) of the same molecule?
Answer: Its value is 1.9 g/day.

Question: What about the “Food intake (food weights in g/day)” value (C57BL/6 DIO mice [2]; Day 11) of the same molecule?
Answer: The value was 2.2 g/day.

Question: What about the “Food intake (food weights in g/day)” value (C57BL/6 DIO mice [2]; Day 12) of the same molecule?
Answer: The value was 2.6 g/day.

Question: What about the “Food intake (food weights in g/day)” value (C57BL/6 DIO mice [2]; Day 13) of the same molecule?
Answer: Its value is 2.2 g/day.

Question: And the “Food intake (food weights in g/day)” value (C57BL/6 DIO mice [2]; Day 14)?
Answer: The value was 2.2 g/day.

Question: And the “Food intake (food weights in g/day)” value (C57BL/6 DIO mice [2]; Day 15)?
Answer: Its value is 2.1 g/day.

Question: And the “food intake after rebound, similar to vehicle” value (C57BL/6 DIO mice [2]; day 10-11, 0.3 mg/kg SC daily)?
Answer: Its value is 2.2 g/day/mouse.

Question: And the “food intake, nadir” value (C57BL/6 DIO mice [2]; reduction initiated on day 2-3, 0.3 mg/kg SC daily)?
Answer: Its value is 1.1 g/day/mouse.

Question: And the “Body weights (expressed as a percentage of day-1 weight)” value (C57BL/6 DIO mice [3]; Day 1)?
Answer: The value was 100.0%.

Question: What about the “Body weights (in grams)” value (C57BL/6 DIO mice [3]; Day 1) of the same molecule?
Answer: Its value is 46.4 grams.

Question: What about the “Body weights (expressed as a percentage of day-1 weight)” value (C57BL/6 DIO mice [3]; Day 2) of the same molecule?
Answer: The value was 98.0%.

Question: What about the “Body weights (in grams)” value (C57BL/6 DIO mice [3]; Day 2) of the same molecule?
Answer: Its value is 45.5 grams.

Question: And the “Body weights (expressed as a percentage of day-1 weight)” value (C57BL/6 DIO mice [3]; Day 3)?
Answer: The value was 96.1%.

Question: What about the “Body weights (in grams)” value (C57BL/6 DIO mice [3]; Day 3) of the same molecule?
Answer: Its value is 44.6 grams.

Question: What about the “Body weights (expressed as a percentage of day-1 weight)” value (C57BL/6 DIO mice [3]; Day 4) of the same molecule?
Answer: Its value is 94.0%.

Question: What about the “Body weights (in grams)” value (C57BL/6 DIO mice [3]; Day 4) of the same molecule?
Answer: Its value is 43.6 grams.

Question: What about the “Body weights (expressed as a percentage of day-1 weight)” value (C57BL/6 DIO mice [3]; Day 5) of the same molecule?
Answer: Its value is 91.0%.

Question: What about the “Body weights (in grams)” value (C57BL/6 DIO mice [3]; Day 5) of the same molecule?
Answer: The value was 42.2 grams.

Question: And the “Body weights (expressed as a percentage of day-1 weight)” value (C57BL/6 DIO mice [3]; Day 6)?
Answer: Its value is 87.7%.

Question: What about the “Body weights (in grams)” value (C57BL/6 DIO mice [3]; Day 6) of the same molecule?
Answer: The value was 40.7 grams.

Question: What about the “Body weights (expressed as a percentage of day-1 weight)” value (C57BL/6 DIO mice [3]; Day 7) of the same molecule?
Answer: Its value is 85.2%.

Question: What about the “Body weights (in grams)” value (C57BL/6 DIO mice [3]; Day 7) of the same molecule?
Answer: The value was 39.5 grams.

Question: And the “Body weights (expressed as a percentage of day-1 weight)” value (C57BL/6 DIO mice [3]; Day 8)?
Answer: Its value is 83.1%.

Question: And the “Body weights (in grams)” value (C57BL/6 DIO mice [3]; Day 8)?
Answer: Its value is 38.5 grams.

Question: What about the “Body weights (expressed as a percentage of day-1 weight)” value (C57BL/6 DIO mice [3]; Day 9) of the same molecule?
Answer: Its value is 80.6%.

Question: What about the “Body weights (in grams)” value (C57BL/6 DIO mice [3]; Day 9) of the same molecule?
Answer: Its value is 37.4 grams.

Question: What about the “Body weights (expressed as a percentage of day-1 weight)” value (C57BL/6 DIO mice [3]; Day 10) of the same molecule?
Answer: The value was 79.2%.

Question: And the “Body weights (in grams)” value (C57BL/6 DIO mice [3]; Day 10)?
Answer: Its value is 36.7 grams.

Question: And the “Body weights (expressed as a percentage of day-1 weight)” value (C57BL/6 DIO mice [3]; Day 11)?
Answer: Its value is 77.9%.

Question: And the “Body weights (in grams)” value (C57BL/6 DIO mice [3]; Day 11)?
Answer: Its value is 36.1 grams.

Question: What about the “Body weights (expressed as a percentage of day-1 weight)” value (C57BL/6 DIO mice [3]; Day 12) of the same molecule?
Answer: Its value is 77.1%.

Question: What about the “Body weights (in grams)” value (C57BL/6 DIO mice [3]; Day 12) of the same molecule?
Answer: The value was 35.7 grams.

Question: And the “Body weights (expressed as a percentage of day-1 weight)” value (C57BL/6 DIO mice [3]; Day 13)?
Answer: The value was 76.2%.

Question: And the “Body weights (in grams)” value (C57BL/6 DIO mice [3]; Day 13)?
Answer: Its value is 35.3 grams.

Question: What about the “Body weights (expressed as a percentage of day-1 weight)” value (C57BL/6 DIO mice [3]; Day 14) of the same molecule?
Answer: Its value is 75.2%.

Question: What about the “Body weights (in grams)” value (C57BL/6 DIO mice [3]; Day 14) of the same molecule?
Answer: The value was 34.8 grams.

Question: And the “Body weights (expressed as a percentage of day-1 weight)” value (C57BL/6 DIO mice [3]; Day 15)?
Answer: The value was 74.4%.

Question: What about the “Body weights (in grams)” value (C57BL/6 DIO mice [3]; Day 15) of the same molecule?
Answer: Its value is 34.5 grams.

Question: What about the “body weight lost (percentage of day 1 body weight)” value (C57BL/6 DIO mice [3]; at day 15, Beloranib 0.3 mg/kg SC, vehicle-treated mice lost 15.5%) of the same molecule?
Answer: The value was 25.6%.

Question: What about the “weight change, mean difference” value (Participants with PWS; 1.8 mg beloranib injection biweekly for 26 weeks, 95% CI −10.8 to −5.6) of the same molecule?
Answer: The value was −8.2%.

Question: What about the “most frequent adverse event” value (Participants with PWS; 1.8 mg or 2.4 mg injection biweekly) of the same molecule?
Answer: Its value is “Injection site bruising”.

Question: And the “weight change, mean difference” value (Participants with PWS; 2.4 mg beloranib injection biweekly for 26 weeks, 95% CI −12.1 to −6.8)?
Answer: The value was −9.5%.

Question: What about the “venous thrombotic events in beloranib-treated participants” value (Participants with PWS; imbalance compared to placebo, dosing stopped early) of the same molecule?
Answer: Its value is “two fatal events of pulmonary embolism and two events of deep vein thrombosis”.
